Tests used:
[1] = system: Aspergillus spp.; experiment: Thermal fogging with eugenol of empty grain storage cells; Airtest trapping of Aspergillus colonies on Petri dishes; details: for Aspergillus contamination (number colonies/Petri dish) After treatment: Airtest 100 l, 10 days after treatment
Method: (§1) Six cells (noted ‘20’, ‘L’, ‘12’, ‘F’, ‘8’ and ‘I’) were studied. These are concrete cells with a conical bottom (bottom for completely emptying the cell and eliminating more readily the debris and dust before ensilaging the next harvest). The cells identified by a number have a capacity of 350 t, those identified by a letter have a capacity of 50 t. The level of contamination of the six cells was evaluated by trapping the contaminated spores or particles using an Airtest introduced into the cell via an access hatch located at the base of the cell.
(§2) The Petri dishes 90 mm in diameter, placed in the Airtest and constituting the trap, contained a Malt Agar+Triton medium; the addition of triton modifies the development of the fungal colonies, which remain compact and are easy to count. The volume of air passing through the Airtest was set at 100 I, except for one cell in which we tested 4 different volumes of air (10 l, 20 l, 40 l, 100 l). For each mode, three repetitions (3Petri dishes) were carried out.
(§3) Two types of trapping were carried out; atmospheric trapping and trapping on the […]. In fact, these walls have rough patches and can retain mould spores or infected particles. The Airtest was placed approximately 5 mm from the wall.
(§4) […]
(§5) The eugenol thermal fogging treatment was carried out on a platform on which the thermal fogging device was installed.
(§6) 4 l and 20 l of eugenol, respectively, were subjected to thermal fogging at 230° C. (for approximately ¾ h) in cell L (≈50 m^3) and in cell 12 (≈350 m^3).

[2] = system: Penicillium spp.; experiment: Thermal fogging with eugenol of empty grain storage cells; Airtest trapping of Penicillium colonies on Petri dishes; details: for Penicillium contamination (number colonies/Petri dish) After treatment: Airtest 100 l, 10 days after treatment
Method: as §1, §2, §3, §4, §5, §6

[3] = thermal fogging of eugenol in the cells, atmospheric and wall contamination

With `C=CCc1ccc(O)c(OC)c1` [eugenol] as the compound, how does the “Aspergillus contamination (number colonies/Petri dish) After treatment” value ([1]; cell 12 (wheat, ≈350 m^3), 20 l eugenol thermal fogging at 230° C., atmosphere trapping, before treatment 77) read?
The value was 0 number colonies/Petri dish.

And the “Aspergillus contamination (number colonies/Petri dish) After treatment” value ([1]; cell 12 (wheat, ≈350 m^3), 20 l eugenol thermal fogging at 230° C., wall trapping, before treatment 85)?
The value was 0 number colonies/Petri dish.

And the “Aspergillus spp. contamination after treatment (in words)” value ([1]; cell 12, 20 l eugenol thermal fogging at 230° C.)?
The value was “completely controlled”.

What about the “Aspergillus contamination (number colonies/Petri dish) After treatment” value ([1]; cell L (wheat, ≈50 m^3), 4 l eugenol thermal fogging at 230° C., atmosphere trapping, before treatment 0) of the same compound?
The value was 0 number colonies/Petri dish.

What about the “Aspergillus contamination (number colonies/Petri dish) After treatment” value ([1]; cell L (wheat, ≈50 m^3), 4 l eugenol thermal fogging at 230° C., wall trapping, before treatment 0) of the same compound?
The value was 0 number colonies/Petri dish.

And the “effectiveness against Aspergillus spp. present in the grain storage cells (in words)” value [1, 3]?
The value was “very effective”.

What about the “Penicillium contamination (number colonies/Petri dish) After treatment” value ([2]; cell 12 (wheat, ≈350 m^3), 20 l eugenol thermal fogging at 230° C., atmosphere trapping, before treatment 1240) of the same compound?
Its value is 400 number colonies/Petri dish.

What about the “Penicillium contamination (number colonies/Petri dish) After treatment” value ([2]; cell 12 (wheat, ≈350 m^3), 20 l eugenol thermal fogging at 230° C., wall trapping, before treatment 1860) of the same compound?
The value was 207 number colonies/Petri dish.

And the “Penicillium contamination (number colonies/Petri dish) After treatment” value ([2]; cell L (wheat, ≈50 m^3), 4 l eugenol thermal fogging at 230° C., atmosphere trapping, before treatment 2650)?
Its value is 106 number colonies/Petri dish.

And the “Penicillium contamination (number colonies/Petri dish) After treatment” value ([2]; cell L (wheat, ≈50 m^3), 4 l eugenol thermal fogging at 230° C., wall trapping, before treatment 7500)?
Its value is 85 number colonies/Petri dish.

And the “level of Penicillium spp. contamination after treatment (in words)” value ([2]; cells L and 12, thermal fogging with eugenol at 230° C., atmospheric and wall contamination)?
Its value is “clear decrease”.

And the “effectiveness against Penicillium spp. present in the grain storage cells (in words)” value [2, 3]?
The value was “very effective”.

From patent US20080175926A1, “Process for treating storage reservoirs contaminated with mycotoxins” (priority 2006, published 2008)
